Test results from ChEMBL document CHEMBL1201861, “Genomics of Drug Sensitity in Cancer screening data, Wellcome Trust Sanger Institute”.

How the values were obtained:
Test in all cases: cells
BB65-RCC = assay type: functional, cell-based, Homo sapiens; conditions: Homo sapiens, BB65-RCC;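 also: growth inhibition of the cell line, measured with a cell viability assay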
Description: SANGER: Inhibition of human BB65-RCC cell growth in a cell viability assay.

A704 = assay type: functional, cell-based; conditions: Homo sapiens;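 also: growth inhibition of human A704 cells, read out with a cell viability assay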
Description: SANGER: Inhibition of human A704 cell growth in a cell viability assay.

BB49-HNC = assay type: functional, cell-based, Homo sapiens; conditions: Homo sapiens, BB49-HNC;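 also: cell viability assay read-out, reported as inhibition of BB49-HNC cell growth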
Description: SANGER: Inhibition of human BB49-HNC cell growth in a cell viability assay.

8-MG-BA = assay type: functional, cell-based, Homo sapiens; conditions: Homo sapiens, 8-MG-BA;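 also: growth inhibition of 8-MG-BA cells, read out with a cell viability assay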
Description: SANGER: Inhibition of human 8-MG-BA cell growth in a cell viability assay.

RPMI-8226 = assay type: functional, cell-based, Homo sapiens; conditions: Homo sapiens, RPMI-8226
Description: SANGER: Inhibition of human RPMI-8226 cell growth in a cell viability assay.

MMAC-SF = assay type: functional, cell-based; conditions: Homo sapiens;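 also: growth inhibition of human MMAC-SF cells, read out with a cell viability assay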
Description: SANGER: Inhibition of human MMAC-SF cell growth in a cell viability assay.

ETK-1 = assay type: functional, cell-based, Homo sapiens; conditions: Homo sapiens, ETK-1;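 also: growth inhibition of human ETK-1 cells, read out with a cell viability assay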
Description: SANGER: Inhibition of human ETK-1 cell growth in a cell viability assay.

PSN1 = assay type: functional, cell-based, Homo sapiens; conditions: Homo sapiens, PSN1;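 also: suppression of growth of human PSN1 cells, read out by a cell viability assay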
Description: SANGER: Inhibition of human PSN1 cell growth in a cell viability assay.

SJSA-1 = assay type: functional, cell-based, Homo sapiens; conditions: Homo sapiens, SJSA-1;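 also: growth inhibition of human SJSA-1 cells, read out through a cell viability measurement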
Description: SANGER: Inhibition of human SJSA-1 cell growth in a cell viability assay.

HL-60 = assay type: functional, cell-based, Homo sapiens; conditions: Homo sapiens, HL-60;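 also: growth inhibition of human HL-60 cells, read out with a cell viability assay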
Description: SANGER: Inhibition of human HL-60 cell growth in a cell viability assay.

TK-10 = assay type: functional, cell-based, Homo sapiens; conditions: Homo sapiens, TK-10;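 also: growth inhibition of TK-10 cells, read out in a cell viability assay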
Description: SANGER: Inhibition of human TK10 cell growth in a cell viability assay.

LB771-HNC = assay type: functional, cell-based; conditions: Homo sapiens;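 also: growth inhibition of LB771-HNC human cells, read out with a cell viability assay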
Description: SANGER: Inhibition of human LB771-HNC cell growth in a cell viability assay.

A3-KAW = assay type: functional, cell-based, Homo sapiens; conditions: Homo sapiens, A3-KAW;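 also: growth inhibition of human A3-KAW cells, read out with a cell viability assay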
Description: SANGER: Inhibition of human A3-KAW cell growth in a cell viability assay.

HT-144 = assay type: functional, cell-based, Homo sapiens; conditions: Homo sapiens, HT-144
Description: SANGER: Inhibition of human HT-144 cell growth in a cell viability assay.

A498 = assay type: functional, cell-based, Homo sapiens; conditions: Homo sapiens, A498;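 also: growth inhibition of human A498 cells, read out with a cell viability assay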
Description: SANGER: Inhibition of human A498 cell growth in a cell viability assay.

TE-1 = assay type: functional, cell-based, Homo sapiens; conditions: Homo sapiens, TE-1;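 also: growth inhibition of the human TE-1 cell line, read out with a cell viability assay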
Description: SANGER: Inhibition of human TE-1 cell growth in a cell viability assay.

KS-1 = assay type: functional, cell-based; conditions: Homo sapiens;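 also: growth inhibition of KS-1 cells, read out with a cell viability assay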
Description: SANGER: Inhibition of human KS-1 cell growth in a cell viability assay.

MLMA = assay type: functional, cell-based, Homo sapiens; conditions: Homo sapiens, MLMA;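 also: growth inhibition of MLMA cells (human), determined through a cell viability readout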
Description: SANGER: Inhibition of human MLMA cell growth in a cell viability assay.

EW-11 = assay type: functional, cell-based, Homo sapiens; conditions: Homo sapiens, EW-11;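 also: growth inhibition of human EW-11 cells, measured with a cell viability assay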
Description: SANGER: Inhibition of human EW-11 cell growth in a cell viability assay.

NCI-H209 = assay type: functional, cell-based, Homo sapiens; conditions: Homo sapiens, NCI-H209;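 also: growth inhibition of human NCI-H209 cells, measured by a cell viability assay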
Description: SANGER: Inhibition of human NCI-H209 cell growth in a cell viability assay.

SNB-75 = assay type: functional, cell-based, Homo sapiens; conditions: Homo sapiens, SNB-75;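 also: cell viability assay measuring growth inhibition of human SNB-75 cells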
Description: SANGER: Inhibition of human SNB75 cell growth in a cell viability assay.

Becker = assay type: functional, cell-based, Homo sapiens; conditions: Homo sapiens, Becker;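 also: growth inhibition of Becker cells, read out with a cell viability assay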
Description: SANGER: Inhibition of human Becker cell growth in a cell viability assay.

SCH = assay type: functional, cell-based, Homo sapiens; conditions: Homo sapiens, SCH;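 also: growth inhibition of human SCH cells, read out in a cell viability assay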
Description: SANGER: Inhibition of human SCH cell growth in a cell viability assay.

KP-N-YS = assay type: functional, cell-based, Homo sapiens; conditions: Homo sapiens, KP-N-YS;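 also: cell viability assay measuring inhibition of cell line growth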
Description: SANGER: Inhibition of human KP-N-YS cell growth in a cell viability assay.

ES5 = assay type: functional, cell-based, Homo sapiens; conditions: Homo sapiens, ES5;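 also: growth inhibition of human ES5 cells, read out by a cell viability assay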
Description: SANGER: Inhibition of human ES5 cell growth in a cell viability assay.

OCUB-M = assay type: functional, cell-based; conditions: Homo sapiens;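 also: growth inhibition of the cancer cell line, read out through a cell viability assay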
Description: SANGER: Inhibition of human OCUB-M cell growth in a cell viability assay.

U-87 MG = assay type: functional, cell-based, Homo sapiens, U-87MG ATCC; conditions: Homo sapiens, U-87 MG;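 also: growth inhibition of the cells measured with a viability assay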
Description: SANGER: Inhibition of human U-87-MG cell growth in a cell viability assay.

BB30-HNC = assay type: functional, cell-based, Homo sapiens; conditions: Homo sapiens, BB30-HNC;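 also: growth inhibition of the cultured cell line, read out by a cell viability assay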
Description: SANGER: Inhibition of human BB30-HNC cell growth in a cell viability assay.

HD-MY-Z = assay type: functional, cell-based, Homo sapiens; conditions: Homo sapiens, HD-MY-Z;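 also: growth inhibition of HD-MY-Z cells, read out with a cell viability assay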
Description: SANGER: Inhibition of human HD-MY-Z cell growth in a cell viability assay.

LNCaP-Clone-FGC = assay type: functional, cell-based, Homo sapiens; conditions: Homo sapiens, LNCaP-Clone-FGC
Description: SANGER: Inhibition of human LNCaP-Clone-FGC cell growth in a cell viability assay.

DU-4475 = assay type: functional, cell-based, Homo sapiens; conditions: Homo sapiens, DU-4475
Description: SANGER: Inhibition of human DU-4475 cell growth in a cell viability assay.

NOMO-1 = assay type: functional, cell-based, Homo sapiens; conditions: Homo sapiens, NOMO-1;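 also: growth inhibition of human NOMO-1 cells measured by a cell viability assay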
Description: SANGER: Inhibition of human NOMO-1 cell growth in a cell viability assay.

MC116 = assay type: functional, cell-based, Homo sapiens; conditions: Homo sapiens, MC116;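 also: growth inhibition of MC116 cells, read out with a cell viability assay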
Description: SANGER: Inhibition of human MC116 cell growth in a cell viability assay.

C2BBe1 = assay type: functional, cell-based, Homo sapiens; conditions: Homo sapiens, C2BBe1;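 also: growth inhibition of C2BBe1 cells, read out through a viability assay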
Description: SANGER: Inhibition of human C2BBe1 cell growth in a cell viability assay.

SK-PN-DW = assay type: functional, cell-based, Homo sapiens; conditions: Homo sapiens, SK-PN-DW;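 also: growth inhibition measured with a viability assay on these cells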
Description: SANGER: Inhibition of human SK-PN-DW cell growth in a cell viability assay.

NB13 = assay type: functional, cell-based, Homo sapiens; conditions: Homo sapiens, NB13;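 also: cell viability readout measuring growth inhibition of human NB13 cells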
Description: SANGER: Inhibition of human NB13 cell growth in a cell viability assay.

GT3TKB = assay type: functional, cell-based, Homo sapiens; conditions: Homo sapiens, GT3TKB;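 also: growth inhibition of the cell line, read out with a cell viability assay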
Description: SANGER: Inhibition of human GT3TKB cell growth in a cell viability assay.

JAR = assay type: functional, cell-based, Homo sapiens; conditions: Homo sapiens, JAR;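 also: growth inhibition of human JAR cells determined with a cell viability assay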
Description: SANGER: Inhibition of human JAR cell growth in a cell viability assay.

SW 962 = assay type: functional, cell-based, Homo sapiens; conditions: Homo sapiens, SW 962;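 also: growth inhibition of human SW962 cells, read out by a cell viability assay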
Description: SANGER: Inhibition of human SW962 cell growth in a cell viability assay.

MEG-01 = assay type: functional, cell-based, Homo sapiens; conditions: Homo sapiens, MEG-01;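 also: growth inhibition of MEG-01 cells, read out by a cell viability assay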
Description: SANGER: Inhibition of human MEG-01 cell growth in a cell viability assay.

LS-411N = assay type: functional, cell-based, Homo sapiens; conditions: Homo sapiens, LS-411N
D283 Med = assay type: functional, cell-based, Homo sapiens; conditions: Homo sapiens, D283 Med
Description: SANGER: Inhibition of human D-283MED cell growth in a cell viability assay.

ES4 = assay type: functional, cell-based, Homo sapiens; conditions: Homo sapiens, ES4;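 also: growth inhibition of human ES4 cells, read out by a cell viability assay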
Description: SANGER: Inhibition of human ES4 cell growth in a cell viability assay.

no-10 = assay type: functional, cell-based, Homo sapiens; conditions: Homo sapiens;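 also: growth inhibition of no-10 cells, read out with a cell viability assay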
Description: SANGER: Inhibition of human no-10 cell growth in a cell viability assay.

HOP-62 = assay type: functional, cell-based, Homo sapiens; conditions: Homo sapiens, HOP-62;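 also: cell growth inhibition determined with a viability assay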
Description: SANGER: Inhibition of human HOP-62 cell growth in a cell viability assay.

IST-MEL1 = assay type: functional, cell-based, Homo sapiens; conditions: Homo sapiens, IST-MEL1;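 also: growth inhibition of the cell line, read out with a cell viability assay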
Description: SANGER: Inhibition of human IST-MEL1 cell growth in a cell viability assay.

DSH1 = assay type: functional, cell-based; conditions: Homo sapiens;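 also: growth inhibition of human DSH1 cells, measured with a cell viability readout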
Description: SANGER: Inhibition of human DSH1 cell growth in a cell viability assay.

MHH-PREB-1 = assay type: functional, cell-based, Homo sapiens; conditions: Homo sapiens, MHH-PREB-1;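 also: cell viability assay measuring inhibition of proliferation of human MHH-PREB-1 cells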
Description: SANGER: Inhibition of human MHH-PREB-1 cell growth in a cell viability assay.

NCI-N87 = assay type: functional, cell-based; conditions: Homo sapiens;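 also: growth inhibition of human NCI-N87 cells, read out with a cell viability assay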
Description: SANGER: Inhibition of human NCI-N87 cell growth in a cell viability assay.

GAK = assay type: functional, cell-based, Homo sapiens; conditions: Homo sapiens, GAK;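 also: cell growth inhibition read out by a cell viability assay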
Description: SANGER: Inhibition of human GAK cell growth in a cell viability assay.

D-247MG = assay type: functional, cell-based; conditions: Homo sapiens
Description: SANGER: Inhibition of human D-247MG cell growth in a cell viability assay.

Which IC50 (BB65-RCC) does the source give for `OC[C@H](Cc1ccccc1)Nc1nc(Oc2ccc3c(c2)CCC3)nc2c1ncn2Cc1ccc(-c2ccccc2)cc1` here?
Its IC50 is 7.84 µM.

What about the IC50 (A704) of the same compound?
The IC50 was greater than 10.2 µM.

And the IC50 (BB49-HNC)?
The IC50 was greater than 10.2 µM.

And the IC50 (8-MG-BA)?
The IC50 was 3.54 µM.

What about the IC50 (RPMI-8226) of the same compound?
The IC50 was greater than 10.2 µM.

What about the IC50 (MMAC-SF) of the same compound?
Its IC50 is greater than 10.2 µM.

And the IC50 (ETK-1)?
Its IC50 is greater than 10.2 µM.

What about the IC50 (PSN1) of the same compound?
The IC50 was 2.83 µM.

What about the IC50 (SJSA-1) of the same compound?
Its IC50 is 2.56 µM.

And the IC50 (HL-60)?
Its IC50 is greater than 10.2 µM.

What about the IC50 (TK-10) of the same compound?
The IC50 was greater than 10.2 µM.

And the IC50 (LB771-HNC)?
The IC50 was 3.25 µM.

What about the IC50 (A3-KAW) of the same compound?
The IC50 was 7.38 µM.

What about the IC50 (HT-144) of the same compound?
Its IC50 is 8.54 µM.

And the IC50 (A498)?
The IC50 was greater than 10.2 µM.

What about the IC50 (TE-1) of the same compound?
The IC50 was greater than 10.2 µM.

What about the IC50 (KS-1) of the same compound?
Its IC50 is greater than 10.2 µM.

What about the IC50 (MLMA) of the same compound?
The IC50 was greater than 10.2 µM.

And the IC50 (EW-11)?
Its IC50 is greater than 10.2 µM.

And the IC50 (NCI-H209)?
Its IC50 is greater than 10.2 µM.

And the IC50 (SNB-75)?
Its IC50 is greater than 10.2 µM.

And the IC50 (Becker)?
Its IC50 is greater than 10.2 µM.

And the IC50 (SCH)?
Its IC50 is greater than 10.2 µM.

What about the IC50 (KP-N-YS) of the same compound?
Its IC50 is 7.6 µM.

And the IC50 (ES5)?
The IC50 was greater than 10.2 µM.

What about the IC50 (OCUB-M) of the same compound?
The IC50 was 3.68 µM.

And the IC50 (U-87 MG)?
Its IC50 is greater than 10.2 µM.

And the IC50 (BB30-HNC)?
The IC50 was 3.92 µM.

What about the IC50 (HD-MY-Z) of the same compound?
The IC50 was greater than 10.2 µM.

What about the IC50 (LNCaP-Clone-FGC) of the same compound?
The IC50 was greater than 10.2 µM.

And the IC50 (DU-4475)?
The IC50 was 1.63 µM.

And the IC50 (NOMO-1)?
The IC50 was greater than 10.2 µM.

What about the IC50 (MC116) of the same compound?
Its IC50 is greater than 10.2 µM.

What about the IC50 (C2BBe1) of the same compound?
The IC50 was greater than 10.2 µM.

And the IC50 (SK-PN-DW)?
Its IC50 is 5.48 µM.

And the IC50 (NB13)?
The IC50 was 8.09 µM.

And the IC50 (GT3TKB)?
Its IC50 is greater than 10.2 µM.

What about the IC50 (JAR) of the same compound?
The IC50 was greater than 10.2 µM.

And the IC50 (SW 962)?
The IC50 was greater than 10.2 µM.

What about the IC50 (MEG-01) of the same compound?
Its IC50 is 4.6 µM.

And the IC50 (LS-411N)?
Its IC50 is 8.51 µM.

What about the IC50 (D283 Med) of the same compound?
Its IC50 is greater than 10.2 µM.

What about the IC50 (ES4) of the same compound?
Its IC50 is 8.51 µM.

What about the IC50 (no-10) of the same compound?
Its IC50 is greater than 10.2 µM.

And the IC50 (HOP-62)?
The IC50 was 3.45 µM.

And the IC50 (IST-MEL1)?
Its IC50 is greater than 10.2 µM.

What about the IC50 (DSH1) of the same compound?
Its IC50 is 6.82 µM.

And the IC50 (MHH-PREB-1)?
Its IC50 is greater than 10.2 µM.

And the IC50 (NCI-N87)?
The IC50 was greater than 10.2 µM.

And the IC50 (GAK)?
The IC50 was greater than 10.2 µM.

For `O=C(NCCCNc1nc(Nc2cccc(NC(=O)N3CCCC3)c2)ncc1I)c1cccs1` [BX-795], which IC50 (BB65-RCC) is on record?
Its IC50 is greater than 5 µM.

And the IC50 (A704)?
The IC50 was greater than 5 µM.

And the IC50 (BB49-HNC)?
Its IC50 is greater than 5 µM.

What about the IC50 (8-MG-BA) of the same compound?
Its IC50 is 1.96 µM.

What about the IC50 (D-247MG) of the same compound?
The IC50 was 3.2 µM.

And the IC50 (RPMI-8226)?
Its IC50 is greater than 5 µM.

What about the IC50 (MMAC-SF) of the same compound?
The IC50 was greater than 5 µM.

And the IC50 (ETK-1)?
Its IC50 is 4.52 µM.

What about the IC50 (PSN1) of the same compound?
Its IC50 is 2.79 µM.

What about the IC50 (SJSA-1) of the same compound?
The IC50 was greater than 5 µM.

And the IC50 (HL-60)?
Its IC50 is 2.54 µM.

And the IC50 (TK-10)?
The IC50 was greater than 5 µM.

What about the IC50 (LB771-HNC) of the same compound?
The IC50 was greater than 5 µM.

What about the IC50 (A3-KAW) of the same compound?
The IC50 was 0.731 µM.

What about the IC50 (HT-144) of the same compound?
Its IC50 is greater than 5 µM.

What about the IC50 (A498) of the same compound?
Its IC50 is 4.56 µM.

And the IC50 (TE-1)?
The IC50 was greater than 5 µM.

And the IC50 (KS-1)?
The IC50 was 1.83 µM.

What about the IC50 (MLMA) of the same compound?
Its IC50 is greater than 5 µM.

And the IC50 (EW-11)?
Its IC50 is greater than 5 µM.

And the IC50 (SNB-75)?
The IC50 was greater than 5 µM.

What about the IC50 (Becker) of the same compound?
The IC50 was 3.01 µM.

And the IC50 (SCH)?
Its IC50 is greater than 5 µM.

And the IC50 (KP-N-YS)?
Its IC50 is greater than 5 µM.

What about the IC50 (ES5) of the same compound?
The IC50 was 1.19 µM.

And the IC50 (OCUB-M)?
The IC50 was greater than 5 µM.

And the IC50 (U-87 MG)?
The IC50 was greater than 5 µM.

And the IC50 (BB30-HNC)?
Its IC50 is greater than 5 µM.

What about the IC50 (HD-MY-Z) of the same compound?
Its IC50 is 3.87 µM.

What about the IC50 (LNCaP-Clone-FGC) of the same compound?
The IC50 was greater than 5 µM.

What about the IC50 (DU-4475) of the same compound?
Its IC50 is 1.29 µM.

What about the IC50 (NOMO-1) of the same compound?
Its IC50 is greater than 5 µM.

And the IC50 (MC116)?
Its IC50 is greater than 5 µM.

What about the IC50 (C2BBe1) of the same compound?
The IC50 was greater than 5 µM.

And the IC50 (SK-PN-DW)?
The IC50 was greater than 5 µM.

And the IC50 (NB13)?
Its IC50 is 4.02 µM.

And the IC50 (GT3TKB)?
The IC50 was 1.9 µM.

What about the IC50 (JAR) of the same compound?
The IC50 was 3.44 µM.

What about the IC50 (SW 962) of the same compound?
Its IC50 is 2.34 µM.

And the IC50 (MEG-01)?
The IC50 was greater than 5 µM.

What about the IC50 (LS-411N) of the same compound?
The IC50 was greater than 5 µM.

What about the IC50 (D283 Med) of the same compound?
The IC50 was 1.04 µM.

And the IC50 (ES4)?
Its IC50 is greater than 5 µM.

And the IC50 (no-10)?
The IC50 was greater than 5 µM.

And the IC50 (IST-MEL1)?
Its IC50 is greater than 5 µM.

And the IC50 (DSH1)?
Its IC50 is greater than 5 µM.

And the IC50 (MHH-PREB-1)?
Its IC50 is 2.81 µM.

And the IC50 (NCI-N87)?
The IC50 was greater than 5 µM.

What about the IC50 (GAK) of the same compound?
The IC50 was greater than 5 µM.
